Assay results published in PubChem BioAssay AID248 (DTP/NCI, 2004).
Several values for one entry are separate records, joined by “and”; a condition that tells them apart may be missing. Identical values can stand only once. Toxic doses and inconclusive results are not listed. No stated cut-off is given here; in the data, active means T/C of 150% or more; inactive means T/C below 125%.

Tested on: L1210 leukemia ip in BDF1 mice, survival T/C
Assay: NCI In Vivo Anticancer Drug Screen. Data for tumor model L1210 Leukemia (intraperitoneal) in B6D2F1 (BDF1) mice
Details: endpoint: mean survival time, higher = longer survival
In short: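 Tumor was transplanted into mice, which were then dosed with test compound or vehicle alone. Survival was recorded for each group, and the treated figure was expressed relative to the control figure.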

[1] = dose: 100.0 mg/kg/injection, schedule: Q01DX009 (ip), vehicle: Klucel (hydroxypropylcellulose) (HPC)
[2] = dose: 200.0 mg/kg/injection, schedule: Q01DX009 (ip), vehicle: Klucel (hydroxypropylcellulose) (HPC)
[3] = dose: 400.0 mg/kg/injection, schedule: Q01DX009 (ip), vehicle: Klucel (hydroxypropylcellulose) (HPC)

Measured: T/C

CN(C)N=Nc1ccc(C(=O)Oc2ccc3c(c2)CCC2C3CCC3(C)C(=O)CCC23)cc1 (configuration not stated)
inactive: [1] 90 % of control | [2] 92 % of control | [3] 88 % of control

Cc1cccc(NC(=O)NC(C)C)c1C
inactive: [1] 109 % of control | dose: 100.0 mg/kg/injection, schedule: Q04DX003 (ip), vehicle: Klucel (hydroxypropylcellulose) (HPC) 102 % of control | [2] 109 % of control | dose: 200.0 mg/kg/injection, schedule: Q04DX003 (ip), vehicle: Klucel (hydroxypropylcellulose) (HPC) 96 % of control | [3] 102 % of control | dose: 400.0 mg/kg/injection, schedule: Q04DX003 (ip), vehicle: Klucel (hydroxypropylcellulose) (HPC) 98 % of control

Cc1ccc(S(=O)(=O)c2ccc(S(=O)(=O)c3ccccc3)cc2)cc1
inactive: dose: 100.0 mg/kg/injection, schedule: Q01DX001 (ip), vehicle: saline 95 % of control and 92 % of control | dose: 200.0 mg/kg/injection, schedule: Q01DX001 (ip), vehicle: saline 97 % of control | dose: 400.0 mg/kg/injection, schedule: Q01DX001 (ip), vehicle: saline 105 % of control and 91 % of control

O=C(O)C(O)C(=O)O
inactive: dose: 50.0 mg/kg/injection, schedule: Q01DX009 (ip), vehicle: saline 95 % of control | dose: 100.0 mg/kg/injection, schedule: Q01DX009 (ip), vehicle: saline 89 % of control | dose: 100.0 mg/kg/injection, schedule: Q04DX003 (ip), vehicle: saline 103 % of control | dose: 200.0 mg/kg/injection, schedule: Q01DX009 (ip), vehicle: saline 92 % of control | dose: 200.0 mg/kg/injection, schedule: Q04DX003 (ip), vehicle: saline 100 % of control

O=c1cc(O)ccn1CCc1cccs1
inactive: dose: 100.0 mg/kg/injection, schedule: Q01DX009 (ip), vehicle: saline with Tween-80 94 % of control | dose: 100.0 mg/kg/injection, schedule: Q04DX003 (ip), vehicle: saline with Tween-80 91 % of control | dose: 200.0 mg/kg/injection, schedule: Q01DX009 (ip), vehicle: saline with Tween-80 96 % of control | dose: 200.0 mg/kg/injection, schedule: Q04DX003 (ip), vehicle: saline with Tween-80 98 % of control | dose: 400.0 mg/kg/injection, schedule: Q04DX003 (ip), vehicle: saline with Tween-80 90 % of control
